Where a name gives a salt, the structure may show the parent alone. Read-outs that look alike come from different tables or passages of the source.
Legend:
[1] = biological target: T1, OBP1 (Bemisia tabaci, UniProt A0A1S6JPY5); experiment: Fluorescence competitive binding assay, recombinant OBP1 with 1-NPN probe
Experimental: (§1) N-Phenyl-1-naphthylamine (1-NPN), 4,4′-Dianilino-1,1′-binaphthyl-5,5′-disulfonic acid dipotassium salt (bis-ANS), β-ionone, α-ionone, and […] were diluted with chromatographic-grade methanol to a final concentration of 1 mmol·L^−1, and the protein was diluted with 50 mM Tris-HCl (pH 7.4) to a final concentration of 2 μmol·L^−1. When 1-NPN was used as fluorescent probe, the excitation wavelength of the fluorescence spectrophotometer was set to 337 nm, and the scanning range was 350−500 nm. When bis-ANS was used as fluorescent probe, the excitation wavelength of the fluorescence spectrophotometer was set to 295 nm, and the scanning range was 300−550 nm. The fluorescent probe was gradually added to the protein-containing quartz tube to make it close to saturation. According to the Scatchard equation [35], the binding dissociation constants K1-NPN of OBP1 and the fluorescent probe 1-NPN and Kbis-ANS of OBP4 and fluorescent probe bis-ANS were determined. Protein and fluorescent probes were added to the quartz dish (the final concentration was 2 μM), and ionone was gradually added to determine the binding ability of the protein and ionone, and the dissociation constant Ki was calculated using the formula: Ki = [IC50]/(1 + [L]/KL), where [IC50] is the concentration of the ligand at which the fluorescence intensity is reduced by half, [L] is the concentration of the free fluorescent probe, and KL is the binding dissociation constant of the protein and the fluorescent probe. N-Phenyl-1-naphthylamine (1-NPN, Chemical Abstract Service (CAS): 90-30-2), 4,4’-dianilino-1,1’-binaphthyl-5,5’-disulfonic acid dipotassium salt (bis-ANS, CAS: 65664-81-5), methanol (CAS: 67-56-1), α-ionone (CAS: 127-41-3), β-ionone (CAS: 14901-07-6), and dihydro-β-ionone (CAS: 17283-81-7) were purchased from Sigma-Aldrich (St. Louis, MO, USA).

[2] = biological target: T2, OBP4 (Bemisia tabaci, UniProt A0A1S6JPY9); experiment: Fluorescence competitive binding assay, recombinant OBP4 with bis-ANS probe
Experimental: as §1

[3] = biological target: T1, OBP1; experiment: Fluorescence competitive binding, OBP1 with bis-ANS as probe (Figure S2C)
Experimental: as §1

[4] = biological target: T2, OBP4; experiment: Fluorescence competitive binding, OBP4 with 1-NPN as probe (Figure S2D); conditions: OBP4, 1-NPN as probe
Experimental: as §1

[5] = system: B. tabaci; conditions: cited from earlier work
[6] = biological target: OBP8; set-up: method as in doi:10.1016/j.cropro.2009.10.001, PMID 19458158; conditions: B. tabaci OBP8; ref [9],[31]; cited from earlier work
[7] = system: flea beetle; set-up: method as in Caceres et al. [10]; conditions: ref Caceres et al. [10]; cited from earlier work
[8] = system: spider mite; set-up: method as in Caceres et al. [10]; conditions: ref Caceres et al. [10]; cited from earlier work

T2 sequence (A0A1S6JPY9 entry or part of it): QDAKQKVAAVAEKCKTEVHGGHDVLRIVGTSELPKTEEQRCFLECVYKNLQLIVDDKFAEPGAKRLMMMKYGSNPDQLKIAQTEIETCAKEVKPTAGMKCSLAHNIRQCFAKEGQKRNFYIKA
T1 sequence (A0A1S6JPY5 entry or part of it): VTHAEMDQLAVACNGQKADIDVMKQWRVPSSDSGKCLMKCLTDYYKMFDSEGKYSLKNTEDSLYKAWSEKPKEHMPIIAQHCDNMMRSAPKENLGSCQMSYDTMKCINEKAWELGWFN

| binding ability (words) [3] | binding ability (words) [4] | Structure (SMILES) | IC50 [1] | binding ability (words) ([1]; OBP1, 1-NPN probe) | IC50 [2] | binding ability (words) ([2]; OBP4, bis-ANS probe) | further results |
| --- | --- | --- | --- | --- | --- | --- | --- |
| did not | did not | CC(=O)CCC1=C(C)CCCC1(C)C [dihydro-β-ionone] |  | hardly displaced the fluorescent probe |  | hardly displaced the fluorescent probe | IC50 ([1]; OBP1, 1-NPN probe, dash symbol of Table S2, read-out: IC50): > 50 µM; IC50 ([2]; OBP4, bis-ANS probe, dash symbol of Table S2, read-out: IC50): > 50 µM |
| bonded well | bonded well | CC(=O)/C=C/C1=C(C)CCCC1(C)C [β-ionone] | 7.16 µM |  | 5.14 µM |  | B. tabaci egg production ([5]; concentrations of 0.1 ng/μL and 0.5 ng/μL, ref Cáceres et al. [10]): significantly inhibit; oviposition deterrence to whiteflies ([5]; ref Caceres et al. [10]): significant oviposition deterrence; Ki [6]: 13.3 µM; repellent effect [7]: strong repellent effect; repellent effect [8]: strong repellent effect |
|  |  | O=S(=O)(O)c1cccc2c(-c3ccc(Nc4ccccc4)c4c(S(=O)(=O)O)cccc34)ccc(Nc3ccccc3)c12 [bis-ANS, 4,4′-Dianilino-1,1′-binaphthyl-5,5′-disulfonic acid dipotassium salt, reference compound] |  |  |  |  | Kd ([2]; OBP4 2 μmol·L^−1, 50 mM Tris-HCl pH 7.4, excitation 295 nm, read-out: dissociation constant of fluorescent probe (Scatchard)): 2.68 µM |
|  |  | c1ccc(Nc2cccc3ccccc23)cc1 [1-NPN, N-Phenyl-1-naphthylamine, reference compound] |  |  |  |  | Kd [1]: 3.38 µM |

| Structure (SMILES) | binding ability (words) [3] | binding ability (words) [4] | IC50 [1] | binding ability (words) ([1]; OBP1, 1-NPN probe) | IC50 [2] | binding ability (words) ([2]; OBP4, bis-ANS probe) | further results |
| --- | --- | --- | --- | --- | --- | --- | --- |
| CC(=O)/C=C/C1C(C)=CCCC1(C)C (stereo not drawn) [α-ionone] | did not | did not | 40.1 µM | weak binding | 21.1 µM | weak binding | binding ability (words) ([1]; OBP1, 1-NPN probe, listed as α-Ionone): weaker binding; binding ability (words) ([2]; OBP4, bis-ANS probe, listed as α-Ionone): weaker binding; ovipositioning repellent to whitefly ([5]; doses of 0.05 ng/μL and 0.5 ng/μL, ref [10]): weak ovipositioning repellent |

Source: PMC6843521, “Discrimination of Oviposition Deterrent Volatile β-Ionone by Odorant-Binding Proteins 1 and 4 in the Whitefly Bemisia tabaci” (Biomolecules, 2019)
